Patent publication US9723840B2 (SYNGENTA PARTICIPATIONS AG, priority 2013, dated 2017)

Columns and labels:
Format in all cases: in vivo
Zea mays [1] = test: Post-emergence herbicidal activity, ZEAMX; design: key: 5=total damage to plant; 0=no damage to plant; details: 1000 g/Ha, post-emergence spray (8 days cultivation), evaluated after 13 days, scale 0-5
Protocol: (§1) Seeds of a variety of test species were sown in standard soil in pots. After 8 days cultivation (post-emergence) under controlled conditions in a glasshouse (at 24/16° C., day/night; 14 hours light; 65% humidity), the plants were sprayed with an aqueous spray solution derived from the formulation of the technical active ingredient in acetone/water (50:50) solution containing 0.5% Tween 20 (polyoxyethelyene sorbitan monolaurate, CAS RN 9005-64-5). The test plants were then grown in a glasshouse under controlled conditions (at 24/16° C., day/night; 14 hours light; 65% humidity) and watered twice daily. After 13 days, the test was evaluated (5=total damage to plant; 0=no damage to plant).

Amaranthus retroflexus [2] = test: Pre-emergence herbicidal activity, AMARE; design: key: 5=total damage to plant; 0=no damage to plant; details: 1000 g/Ha, pre-emergence spray, evaluated after 13 days, scale 0-5
Protocol: as §1, with “After” for “After 8 days”, “for one day (pre-emergence)” for “(post-emergence)”

Amaranthus retroflexus [3] = test: Post-emergence herbicidal activity, AMARE; design: key: 5=total damage to plant; 0=no damage to plant; details: 1000 g/Ha, post-emergence spray (8 days cultivation), evaluated after 13 days, scale 0-5
Protocol: as §1

Setaria faberi [4] = test: Pre-emergence herbicidal activity, SETFA; design: key: 5=total damage to plant; 0=no damage to plant; details: 1000 g/Ha, pre-emergence spray, evaluated after 13 days, scale 0-5
Protocol: as §1, with “After” for “After 8 days”, “for one day (pre-emergence)” for “(post-emergence)”

Echinochloa crus-galli [5] = test: Pre-emergence herbicidal activity, ECHCG; design: key: 5=total damage to plant; 0=no damage to plant; details: 1000 g/Ha, pre-emergence spray, evaluated after 13 days, scale 0-5
Protocol: as §1, with “After” for “After 8 days”, “for one day (pre-emergence)” for “(post-emergence)”

Zea mays [6] = test: Pre-emergence herbicidal activity, ZEAMX; details: 1000 g/Ha, pre-emergence spray, evaluated after 13 days, scale 0-5
Protocol: as §1, with “After” for “After 8 days”, “for one day (pre-emergence)” for “(post-emergence)”

Setaria faberi [7] = test: Post-emergence herbicidal activity, SETFA; design: key: 5=total damage to plant; 0=no damage to plant; details: 1000 g/Ha, post-emergence spray (8 days cultivation), evaluated after 13 days, scale 0-5
Protocol: as §1

Echinochloa crus-galli [8] = test: Post-emergence herbicidal activity, ECHCG; design: key: 5=total damage to plant; 0=no damage to plant; details: 1000 g/Ha, post-emergence spray (8 days cultivation), evaluated after 13 days, scale 0-5
Protocol: as §1

Abutilon theophrasti [9] = test: Post-emergence herbicidal activity, ABUTH; design: key: 5=total damage to plant; 0=no damage to plant; details: 1000 g/Ha, post-emergence spray (8 days cultivation), evaluated after 13 days, scale 0-5
Protocol: as §1

Abutilon theophrasti [10] = test: Pre-emergence herbicidal activity, ABUTH; design: key: 5=total damage to plant; 0=no damage to plant; details: 1000 g/Ha, pre-emergence spray, evaluated after 13 days, scale 0-5
Protocol: as §1, with “After” for “After 8 days”, “for one day (pre-emergence)” for “(post-emergence)”

Alopecurus myosuroides [11] = test: Post-emergence herbicidal activity, ALOMY; design: key: 5=total damage to plant; 0=no damage to plant; details: 1000 g/Ha, post-emergence spray (8 days cultivation), evaluated after 13 days, scale 0-5
Protocol: as §1

Alopecurus myosuroides [12] = test: Pre-emergence herbicidal activity, ALOMY; details: 1000 g/Ha, pre-emergence spray, evaluated after 13 days, scale 0-5
Protocol: as §1, with “After” for “After 8 days”, “for one day (pre-emergence)” for “(post-emergence)”

SMILES	ZEAMX damage score, application post-emergence (Zea mays [1])	AMARE damage score, application pre-emergence (Amaranthus retroflexus [2])	AMARE damage score, application post-emergence (Amaranthus retroflexus [3])	SETFA damage score, application pre-emergence (Setaria faberi [4])	ECHCG damage score, application pre-emergence (Echinochloa crus-galli [5])	ZEAMX damage score, application pre-emergence (Zea mays [6])	SETFA damage score, application post-emergence (Setaria faberi [7])	ECHCG damage score, application post-emergence (Echinochloa crus-galli [8])	ABUTH damage score, application post-emergence (Abutilon theophrasti [9])	ABUTH damage score, application pre-emergence (Abutilon theophrasti [10])	ALOMY damage score, application post-emergence (Alopecurus myosuroides [11])	ALOMY damage score, application pre-emergence (Alopecurus myosuroides [12])
CN1C(=O)N(c2cc(C(F)(F)F)c(Cl)nn2)C(O)C1O (centres unmarked) [Example A22]	3	5	5	4	2	1	5	5	5	5	–	–
CON1C(=O)N(c2cc(C(C)(F)F)c(Cl)nn2)C(O)C1C (centres unmarked) [Example A12]	3	5	5	5	5	3	5	5	5	5	5	3
CCOC1C(O)N(c2cc(C(F)(F)F)cnn2)C(=O)N1C (centres unmarked) [Example A24]	–	5	–	5	4	2	–	5	–	5	–	–
CC1C(O)N(c2cc(C(F)(F)F)c(Cl)nn2)C(=O)N1C (centres unmarked) [Example A16]	3	5	5	3	5	3	5	5	5	5	–	–
CCOC1C(O)N(c2cc(C(F)(F)F)c(Cl)nn2)C(=O)N1C (centres unmarked) [Example A23]	3	5	5	5	5	2	5	5	5	5	–	–
CN1CC(O)N(c2cc(C(C)(C)F)cnn2)C1=O (centres unmarked) [Example A18]	4	5	5	4	5	2	5	5	5	5	–	–
CC1C(O)N(c2cc(C(C)(F)F)c(Cl)nn2)C(=O)N1C (centres unmarked) [Example A11]	5	5	5	5	5	4	5	5	5	5	5	4
CC1C(O)N(c2cc(C(C)(C)F)c(Cl)nn2)C(=O)N1C (centres unmarked) [Example A2, 1-[6-chloro-5-(1-fluoro-1-methyl-ethyl)pyridazin-3-yl]-5-hydroxy-3,4-dimethyl-imidazolidin-2-one]	5	5	5	5	4	3	5	5	5	5	4	4
CN1CC(O)N(c2cc(C(C)(C)F)c(Cl)nn2)C1=O (centres unmarked) [Example A1]	5	5	5	5	5	4	5	5	5	5	5	4
CON1C(=O)N(c2cc(C(C)(C)F)c(Cl)nn2)C(O)C1C (centres unmarked) [Example A6, 1-[6-chloro-5-(1-fluoro-1-methyl-ethyl)pyridazin-3-yl]-5-hydroxy-3-methoxy-4-methyl-imidazolidin-2-one]	5	5	5	4	4	3	5	5	5	5	4	3
COC1C(O)N(c2cc(C(C)(C)F)c(Cl)nn2)C(=O)N1C (centres unmarked) [Example A8]	4	5	5	5	5	3	5	5	5	5	4	4
CC1C(O)N(c2cc(C(F)(F)F)cnn2)C(=O)N1C (centres unmarked) [Example A21]	5	5	5	5	5	3	5	5	5	5	–	–
CN1CC(O)N(c2ccc(C(=O)NC(C)(C)C)nn2)C1=O (centres unmarked) [Example A25]	3	5	5	5	5	2	5	5	5	5	–	–
CN1CC(O)N(c2cc(C(C)(F)F)cnn2)C1=O (centres unmarked) [Example A20]	5	5	5	5	5	3	5	5	5	5	–	–
CN1CC(O)N(c2cc(C(C)(C)F)c(-c3ccccc3)nn2)C1=O (centres unmarked) [Example A4]	5	5	5	5	5	–	5	5	5	–	5	4
